Measurements published in US6949544B2, “Inhibitors of c-Jun N-terminal kinases (JNK) and other protein kinases” (Vertex Pharmaceuticals Incorporated, priority 2001, dated 2005).

Key:
Type in all cases: biochemical
activated JNK3 = target: T1, activated JNK3 (Homo sapiens, UniProt P53779); assay: JNK inhibition assay (spectrophotometric coupled-enzyme assay); settings: 10 nM activated JNK3, 10 μM ATP; read-out: Activity in the JNK3 Inhibition Assay (Ki rating A-C)
T1 construct: One such construct encodes amino acid residues Ser40-Glu402 of JNK3α1 and is preceded by Met and Gly residues; Met-Gly (initiator methionine and added glycine) (N); made in house; host or cells: E. coli BL21 (DE3)
Description: A BLAST search of the EST database using the published JNK3α1 cDNA as a query identified an EST clone (#632588) that contained the entire coding sequence for human JNK3α1. Polymerase chain reactions (PCR) using pfu polymerase (Strategene) were used to introduce restriction sites into the cDNA for cloning into the pET-15B expression vector at the NcoI and BamHI sites. The protein was expressed in E. coli. […] This truncation corresponds to Ser 2 of JNK1 and JNK2 proteins, and is preceded by a methionine (initiation) and a glycine residue. The glycine residue was added in order to introduce an NcoI site for cloning into the expression vector. In addition, systematic C-terminal truncations were performed by PCR to identify a construct that give rise to diffraction-quality crystals.
5 mg of JNK3 was diluted to 0.5 mg/ml in 50 mM HEPES buffer, pH 7.5, containing 100 mM NaCl, 5 mM DTT, 20 mM MgCl2 and 1 mM ATP. GST-MKK7(DD) was added at a molar ratio of 1:2.5 GST-MKK7:JNK3. After incubation for 30 minutes at 25° C., the reaction mixture was concentrated 5-fold by ultrafiltration in a Centriprep-30 (Amicon, Beverly, Mass.), diluted to 10 ml and an additional 1 mM ATP added. This procedure was repeated three times to remove ADP and replenish ATP. The final addition of ATP was 5 mM and the mixture incubated overnight at 4° C.
The activated JNK3/GST-MKK7(DD) reaction mixture was exchanged into 50 mM HEPES buffer, pH 7.5, containing 5 mM DTT and 5% glycerol (w/v) by dialysis or ultrafiltration. The reaction mixture was adjusted to 1.1 M potassium phosphate, pH 7.5, and purified by hydrophobic interaction chromatography (at 25° C.) using a Rainin Hydropore column. […] Activated JNK3 (i.e. doubly phosphorylated JNK3) was stored at −70° C. at 0.25-1 mg/ml.
Compounds were assayed for the inhibition of JNK3 by a spectrophotometric coupled-enzyme assay. In this assay, a fixed concentration of activated JNK3 (10 nM) was incubated with various concentrations of a potential inhibitor dissolved in DMSO for 10 minutes at 30° C. in a buffer containing 0.1 M HEPES buffer, pH 7.5, containing 10 mM MgCl2, 2.5 mM phosphoenolpyruvate, 200 μM NADH, 150 μg/mL pyruvate kinase, 50 μg/mL lactate dehydrogenase, and 200 μM EGF receptor peptide. […] The reaction was initiated by the addition of 10 μM ATP and the assay plate is inserted into the spectrophotometer's assay plate compartment that was maintained at 30° C. The decrease of absorbance at 340 nm was monitored as a function of time. The rate data as a function of inhibitor concentration was fitted to competitive inhibition kinetic model to determine the Ki.

[1] = target: Glycogen Synthase Kinase 3 (GSK-3) (Homo sapiens, UniProt P49841); assay: GSK-3 inhibition assay (standard coupled enzyme assay); settings: 60 nM GSK-3, 10 μM ATP; read-out: GSK-3 Inhibitory Activity (Ki rating A-C)
Procedure: Compounds were screened in the following manner for their ability to inhibit Glycogen Synthase Kinase 3 (GSK-3) using a standard coupled enzyme assay (Fox et al (1998) Protein Sci 7, 2249). To an assay stock buffer solution containing 0.1M HEPES 7.5, 10 mM MgCl2, 25 mM NaCl, 2.5 mM phosphoenolpyruvate, 300 μM NADH, 1 mM DTT, 30 μg/mL pyruvate kinase, 10 μg/mL lactate dehydrogenase, 300 μM peptide (HSSPHQp-SEDEEE, American Peptide, Sunnyvale, Calif.), and 60 nM GSK-3, was added a 30 μM solution of the compound in DMSO and the resulting mixture incubated at 30° C. for 5 min. The reaction was initiated by the addition of 10 μM ATP. The rates of reaction were obtained by monitoring absorbance at 340 nm over a 5 minute read time at 30° C. using a Molecular Devices plate reader (Sunnyvale, Calif.). The IC50 was determined from the rate data as a function of inhibitor concentration.

[2] = target: T2, Lck kinase purified from bovine thymus (Bos taurus, UniProt Q3ZCM0); assay: Lck inhibition assay (33P incorporation into poly Glu-Tyr); settings: for Ki: 10 μM ATP, read-out: Activity in the Lck Inhibition Assay (Ki rating A-C)
T2 construct: Lck kinase purified from bovine thymus; purchased Upstate Biotechnology 14-106; host or cells: bovine thymus (tissue-purified)
Procedure: The compounds were assayed as inhibitors of Lck kinase purified from bovine thymus (from Upstate Biotechnology, cat. no. 14-106). Lck kinase activity was monitored by following the incorporation of ^33P from ATP into the tyrosine of a random poly Glu-Tyr polymer substrate of composition, Glu:Tyr=4:1 (Sigma, cat. no. P-0275). The following were the final concentrations of the assay components: 0.05 M HEPES, pH 7.6, 10 mM MgCl2, 2 mM DTT, 0.25 mg/ml BSA, 10 μM ATP (1-2 μCi ^33P-ATP per reaction), 5 mg/ml poly Glu-Tyr, and 1-2 units of lck kinase. In a typical assay, all the reaction components with the exception of ATP were pre-mixed and aliquoted into assay plate wells. […] The assay plate was incubated at 30° C. for 10 min before initiating the reaction with ^33P-ATP. After 20 min of reaction, the reactions were quenched with 150 μl of 10% trichloroacetic acid (TCA) containing 20 mM Na3PO4. The quenched samples were then transferred to a 96-well filter plate (Whatman, UNI-Filter GF/F Glass Fiber Filter, cat no. 7700-3310) installed on a filter plate vacuum manifold. Filter plates were washed four times with 10% TCA containing 20 mM Na3PO4 and then 4 times with methanol. 200 μl of scintillation fluid was then added to each well. The plates were sealed and the amount of radioactivity associated with the filters was quantified on a TopCount scintillation counter.

CDK-2/Cyclin A = CDK-2/Cyclin A (Homo sapiens, UniProt P24941); assay: CDK2 inhibition assay (standard coupled enzyme assay); settings: 25 nM CDK-2/Cyclin A; read-out: CDK2 Inhibitory Activity (Ki rating A-C)
Procedure: Compounds were screened in the following manner for their ability to inhibit CDK2 using a standard coupled enzyme assay (Fox et al (1998) Protein Sci 7, 2249).
To an assay stock buffer solution containing 0.1M HEPES 7.5, 10 mM MgCl2, 1 mM DTT, 25 mM NaCl, 2.5 mM phosphoenolpyruvate, […], […], […], […], and 100 μM peptide ([…], American Peptide, Sunnyvale, Calif.) was added a DMSO solution of a compound of the present invention to a final concentration of 30 μM. The resulting mixture was incubated at 30° C. for 10 minutes.
The reaction was initiated by the addition of 10 μL of CDK-2/Cyclin A stock solution to give a final concentration of 25 nM in the assay. The rates of reaction were obtained by monitoring absorbance at 340 nm over a 5-minute read time at 30° C. using a BioRad Ultramark plate reader (Hercules, Calif.). The Ki values were determined from the rate data as a function of inhibitor concentration.

T2 sequence (Q3ZCM0 1-509): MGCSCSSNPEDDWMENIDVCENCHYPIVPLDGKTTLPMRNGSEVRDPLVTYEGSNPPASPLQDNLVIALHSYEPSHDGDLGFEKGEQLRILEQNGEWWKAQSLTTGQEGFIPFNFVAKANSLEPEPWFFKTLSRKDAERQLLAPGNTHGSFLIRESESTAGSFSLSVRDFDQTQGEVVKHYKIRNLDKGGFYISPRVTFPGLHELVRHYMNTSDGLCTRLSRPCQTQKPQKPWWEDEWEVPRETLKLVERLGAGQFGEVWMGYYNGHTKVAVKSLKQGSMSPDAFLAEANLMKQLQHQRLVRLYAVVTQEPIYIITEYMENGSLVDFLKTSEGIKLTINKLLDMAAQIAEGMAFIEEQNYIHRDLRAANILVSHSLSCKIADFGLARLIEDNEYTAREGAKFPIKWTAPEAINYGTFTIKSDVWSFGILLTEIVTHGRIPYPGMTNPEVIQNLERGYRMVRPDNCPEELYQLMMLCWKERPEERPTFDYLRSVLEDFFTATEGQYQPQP
T1 sequence (P53779 40-402): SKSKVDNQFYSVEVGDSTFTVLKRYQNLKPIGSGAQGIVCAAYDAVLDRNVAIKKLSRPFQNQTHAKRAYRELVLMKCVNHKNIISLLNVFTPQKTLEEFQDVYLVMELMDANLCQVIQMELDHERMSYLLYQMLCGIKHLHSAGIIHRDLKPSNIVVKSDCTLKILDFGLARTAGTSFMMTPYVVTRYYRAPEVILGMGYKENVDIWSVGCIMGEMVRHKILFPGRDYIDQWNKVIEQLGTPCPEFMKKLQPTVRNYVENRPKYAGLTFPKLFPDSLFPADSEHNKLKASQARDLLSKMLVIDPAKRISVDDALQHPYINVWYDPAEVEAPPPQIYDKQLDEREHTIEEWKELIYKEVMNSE
Chain of Glycogen Synthase Kinase 3 (GSK-3) (P49841 whole entry): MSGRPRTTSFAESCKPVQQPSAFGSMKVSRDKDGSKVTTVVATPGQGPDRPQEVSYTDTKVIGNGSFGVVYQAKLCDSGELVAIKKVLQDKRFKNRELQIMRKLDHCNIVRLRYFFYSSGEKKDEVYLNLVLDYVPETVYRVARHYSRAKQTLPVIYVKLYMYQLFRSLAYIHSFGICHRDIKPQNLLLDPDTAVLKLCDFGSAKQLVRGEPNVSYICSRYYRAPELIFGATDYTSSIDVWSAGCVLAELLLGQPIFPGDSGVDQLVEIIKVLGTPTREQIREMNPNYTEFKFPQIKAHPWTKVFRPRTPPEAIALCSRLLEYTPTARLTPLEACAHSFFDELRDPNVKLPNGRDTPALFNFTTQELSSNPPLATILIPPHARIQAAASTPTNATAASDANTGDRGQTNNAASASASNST

Compound | Ki [2] | Ki (CDK-2/Cyclin A) | also measured
COc1cc(-c2ccnc(Nc3nnc(C)s3)n2)cc(OC)c1OC [Compound I-83] |  |  | Ki (activated JNK3): > 1000 nM; Ki [1]: > 1000 nM
COc1cc(-c2ccnc(Nc3onc(C)c3C)n2)cc(OC)c1OC [Compound I-87] |  |  | Ki (activated JNK3): 100 to 1000 nM; Ki [1]: > 1000 nM
COc1cc(-c2ccnc(Nc3nccs3)n2)cc(OC)c1OC [Compound I-85] | 100 to 1000 nM |  | Ki (activated JNK3): 100 to 1000 nM
COc1cc(-c2ccnc(Nc3cccc(S(N)(=O)=O)c3)n2)cc(OC)c1OC [Compound I-94] | 100 to 1000 nM |  | Ki (activated JNK3): < 100 nM
COc1ccc(-c2ccnc(Nc3cccc(Oc4ccccc4)c3)n2)c2c1OCCO2 [II-15] | 100 to 1000 nM |  | 
CCc1ccc(Nc2cc(-c3cc(OC)c(OC)c(OC)c3)ccn2)cc1 [Compound I-158] |  |  | Ki [1]: > 1000 nM
COc1cc(-c2ccnc(Nc3ccc(F)c(F)c3)c2)cc(OC)c1OC [Compound I-160] |  |  | Ki [1]: > 1000 nM
COc1cc(-c2ccnc(Nc3ccc(F)cc3F)c2)cc(OC)c1OC [Compound I-159] |  |  | Ki [1]: 100 to 1000 nM
COc1ccc(-c2ccnc(Nc3cccc(OCc4ccccc4)c3)n2)c(OCCN2CCOCC2)c1OC [II-22] | > 1000 nM |  | 
COc1ccc(-c2ccnc(Nc3cccc(Oc4ccccc4)c3)n2)c(OC)c1OCCN1CCOCC1 [II-19] | > 1000 nM |  | 
COc1ccc(-c2ccnc(Nc3cccc(F)c3)n2)c(OC)c1OC [II-5] | > 1000 nM |  | 
COc1ccc(Nc2nccc(-c3ccc(OC)c(OC)c3OC)n2)cc1 [II-12] | 100 to 1000 nM |  | 
COc1cc(-c2ccnc(Nc3cccc(N(C)C)c3)n2)cc(OC)c1OC [Compound I-89] | 100 to 1000 nM |  | Ki (activated JNK3): 100 to 1000 nM
COc1ccc(-c2ccnc(Nc3cccc(OCc4ccccc4)c3)n2)c(OC)c1OCCN1CCOCC1 [II-20] | > 1000 nM |  | 
COc1c(-c2ccnc(Nc3cccc(Oc4ccccc4)c3)n2)ccc2c1OCCO2 [II-17, [4-(5-Methoxy-2,3-dihydro-benzo[1,4]dioxin-6-yl)-pyrimidin-2-yl]-(3-phenoxyphenyl)-amine] | > 1000 nM |  | 
COc1ccc(-c2ccnc(Nc3cc(C)cc(C)c3)n2)c(OC)c1OC [II-14, (3,5-Dimethylphenyl)-[4-(2,3,4-trimethoxyphenyl)-pyrimid-2-yl]-amine] |  |  | Activity in the Lck Inhibition Assay (percent inhibition rating D-F) ([2]; at a 5 μM inhibitor concentration): F (percent inhibition of between 67% and 100%)

Further lines, with some results ahead:

Ki [2] | Ki (CDK-2/Cyclin A) | Compound | also measured
100 to 1000 nM | > 5000 nM | COc1ccc(-c2ccnc(Nc3cccc(-c4ccc(N(C)C)cc4)c3)n2)c(OC)c1OC [II-52] | 
100 to 1000 nM | > 5000 nM | COc1ccc(-c2ccnc(Nc3cc(-c4cccc(Cl)c4)ccc3C)n2)c(OC)c1OC [II-54] | 
< 100 nM | > 5000 nM | COc1ccc(-c2ccnc(Nc3cccc(-c4ccc(CO)cc4)c3)n2)c(OC)c1OC [II-49] | 
> 1000 nM | > 5000 nM | COc1ccc(-c2ccnc(Nc3cc(-c4cccc(C(F)(F)F)c4)ccc3C)n2)c(OC)c1OC [II-57] | 
100 to 1000 nM | > 5000 nM | COc1ccc(-c2ccnc(Nc3cccc(-c4ccc(F)c(Cl)c4)c3)n2)c(OC)c1OC [II-50] | 
100 to 1000 nM | > 5000 nM | CCOc1cccc(-c2ccc(C)c(Nc3nccc(-c4ccc(OC)c(OC)c4OC)n3)c2)c1 [II-59] | 
100 to 1000 nM | > 5000 nM | COc1ccc(-c2ccnc(Nc3cccc(-c4cccc(N)c4)c3)n2)c(OC)c1OC [II-51] | 
100 to 1000 nM |  | COc1ccc(-c2ccnc(Nc3cccc(OCc4ccccc4)c3)n2)c(OC)c1OC [II-2] | 
100 to 1000 nM | > 5000 nM | COc1ccc(-c2ccnc(Nc3cc(CO)ccc3C)n2)c(OC)c1OC [II-61] | 
< 100 nM | > 5000 nM | COc1ccc(-c2ccnc(Nc3cc(-c4ccc(N(C)C)cc4)ccc3C)n2)c(OC)c1OC [II-55] | 
< 100 nM |  | COc1ccc(-c2ccnc(Nc3cccc(-c4ccc(F)cc4)c3)n2)c(OC)c1OC [II-37] | 
< 100 nM |  | COc1ccc(-c2ccnc(Nc3cccc(-c4ccccc4F)c3)n2)c(OC)c1OC [II-35] | 
100 to 1000 nM | > 5000 nM | COc1ccc(-c2ccnc(Nc3cc(-c4cccnc4)ccc3C)n2)c(OC)c1OC [II-60] | 
> 1000 nM | > 5000 nM | COc1ccc(-c2ccnc(Nc3cc(-c4cc(C)ccc4C)ccc3C)n2)c(OC)c1OC [II-58] | 
100 to 1000 nM |  | COc1ccc(-c2ccnc(Nc3cccc(-c4ccccc4Cl)c3)n2)c(OC)c1OC [II-38] | 
> 1000 nM |  | COc1ccc(-c2ccnc(Nc3cccc(C)c3)n2)c(OC)c1OC [II-10] | 
100 to 1000 nM |  | COc1cccc(Nc2nccc(-c3ccc(OC)c(OC)c3OC)n2)c1 [II-6] | 
< 100 nM |  | COc1ccc(-c2ccnc(Nc3cccc(-c4cccc(F)c4)c3)n2)c(OC)c1OC [II-36] | 
100 to 1000 nM |  | COc1ccccc1-c1cccc(Nc2nccc(-c3ccc(OC)c(OC)c3OC)n2)c1 [II-41] | 
< 100 nM |  | COc1ccc(-c2ccnc(Nc3cccc(-c4ccc(Cl)cc4)c3)n2)c(OC)c1OC [II-40] | 
< 100 nM |  | COc1ccc(-c2cccc(Nc3nccc(-c4ccc(OC)c(OC)c4OC)n3)c2)cc1 [II-43] | 
100 to 1000 nM | > 5000 nM | COc1ccc(-c2ccnc(Nc3cccc(-c4cccnc4)c3)n2)c(OC)c1OC [II-53] | 
